Measured values as given in US11685741B2, “Fluorescent probes” (University of Massachusetts, priority 2017, dated 2023).
Values joined by “and” are separate entries in the source; they are usually repeats but may differ in a detail not shown here. Equal values may be shown once.

Columns and labels:
[1] = system: primary human fibroblast cells (ws1); test: Confocal imaging of Fe2+ with Rh6GD in ws1 cells; assay type: cell-based
Protocol: Human primary fibroblast ws1 cells were grown at 37° C. in a humid atmosphere of 5% CO2 atmosphere in eagle's minimum essential medium (EMEM, ATCC) supplemented with 10% fetal bovine serum (FBS, ATCC). Cultures were divided into 1:2 every 48 h to an approximate cell density of 1.21 million cells/ml and used for experiments after 24 h.
A Zeiss LSM 710 laser-scanning confocal microscope system was used for cell imaging experiments. 40× oil-immersion objective lens were used to perform all the experiments. For imaging with the Rh6GD sensor, excitation wavelength of the laser was 543 nm and emissions were collected over the range 545-625 nm. For images with MitoTracker Green FM, LysoTracker Deep Red, excitation wavelengths recommended by the manufacturer were 488 nm for MitoTracker, 633 nm for LysoTracker. Emissions were integrated at 492-535 nm (MitoTracker), 650-800 nm (LysoTracker), respectively.
Ws1 cells, at an approximately density of 1.2 million/ml in complete EMEM medium, were incubated with 100 μM ferrous ammonium sulfate (FAS, Fe (NH4)2(SO4)2 from a 10 mM stock solution) for overnight at 37° C. in a humid atmosphere of 5% CO2 and then the cells were washed with fresh EMEM medium to remove excess Fe^2+. Then cells were incubated with Rh6GD (10 μM, from 500 μM stock solution in DMF) at 37° C. for 30 min and then cells were washed with EMEM media and then imaged. In addition, some cells were treated firstly with 100 μM Fe^2+ overnight and then the cells were washed with fresh EMEM medium. For chelation experiments, Fe^2+-loaded cells or untreated cells were incubated with 1 mM 2,2′-bipyridyl (Bpy) at 37° C. for 30 min, then sensor was added followed by washing with the media, and then imaging was done. Controls were imaged without incubation with Fe^2+ or 2,2′-bipyridyl.
The ability of Rh6GD to detect Fe^2+ in primary human fibroblast cells (ws1) was investigated by using confocal microscopy. […] For Fe^2+ repleting conditions, live ws1 cells were incubated with 100 μM of ferrous ammonium sulfate (Fe (NH4)2(SO4)2) at 37° C. for overnight followed by washing with EMEM medium to remove excess Fe^2+ and then 10 μM of Rh6GD was added to the culture media and was incubated at 37° C. for 30 min. […] This fluorescent intensity is almost the same as that of cells without Fe^2+ or Bpy treatment (FIG. 34B).
To explore this, the distribution of exchangeable Fe^2+ pools in live ws1 cells were further investigated using Rh6GD, together with colocalization experiments using other dyes such as MitoTracker Green FM (a green fluorescent dye which localizes to mitochondria in live cells regardless of mitochondrial membrane potential) and LysoTracker Deep Red (a fluorescent dye that stains acidic compartments such as endosomes and lysosomes in live cells). […]

[2] = Metal ion sensing: UV-vis and fluorescence response to Fe3+ and other metal ions
Protocol: The spectroscopic properties of Rh-PK and its interactions with various metal ions were evaluated in acetonitrile (ACN)/Tris-HCl buffer (10 mM, pH 7.3, v/v, 3:1). […] The changes in UV-Vis spectra after the addition of various ions are shown in FIG. 2, which is an absorbance spectrum of 100 μM sensor with various metal ions (100 μM for Ni^+2, Cu^+, Cu^+2, Zn^+2, Pb, Fe^+2, Fe^+3, Cr^+3, Hg^+2, Mn^+2, Ag^+, and Co^+2; 200 μM for K^+, Na^+, Ca^2+ and Mg^2+) in the ACN/Tris buffer (10 mM, pH 7.3, v/v 3:1).
When Fe^3+ was added into the solution of Rh-PK, a significant enhancement of fluorescence (>12-fold with 1.0 equiv of Fe^3+) was observed.
The interferences from the other metal ions with Rh-PK in its response to Fe^3+ was examined. […] Each of the 12 metal ions was pre-incubated with Rh-PK before 1 equiv. of Fe^3+ was added, the fluorescence response was then measured.
The stock solution of sensor and metal ions were prepared at the concentration of 1 mM. M. P. Walkees, Mutat. Res., 2003, 533, 107; M. Waisberg, et al., Toxicology, 2003, 192, 95.
The UV-vis. and fluorescence spectra of RhHPA to various possible interfering metal ions and its selectivity for Fe^3+ were examined. See FIG. 6, which is a plot of absorbance dependent on the concentration of Fe^3+ in the range from 0 to 2 equivalents in ACN/Tris-HCl buffer (10 mM, pH 7.3, v/v 2:1); FIG. 7, which is a Job's plot between Fe^3+ and RhHPA, indicating the 1:1 binding mode for sensor and iron(III). […] Addition of Na^+, K^+, Ca^2+, Mg^2+, Cr^3+, […], Hg^2+, Cu^2+, Pb^2+, Zn^2+, Fe^2+, Co^2+, Ni^2+, and Ag^+ exerted little or no effect on the emission of RhHPA, while remarkable fluorescence enhancement was detected upon the addition of Fe^3+ by excitation of the rhodamine fluorophore at 535 nm.
Experiments of iron(III) with other metal ions were investigated by means of the fluorescence response of RhHPA toward Fe^3+ in the presence of various other metal ions such as Na^+, K^+, Ca^2+, Mg^2+, Cr^3+, Hg^2+, Cu^2+, Pb^2+, Zn^2+, Fe^2+, Co^2+, Ni^2+, Cd^2+, and Ag^+. […] for Fe^3+ had no changes with addition of other metal ions. Cu(II) and Zn(II) increased the fluorescence intensity slightly.

[3] = Rh-PK + Fe^3+, ACN/Tris-HCl buffer pH 7.3 v/v 3:1

Structure (SMILES)	fluorescence of cells with sensor only ([1]; 10 μM Rh6GD)	fluorescence of cells treated with Fe^2+ then Bpy ([1]; 100 μM Fe^2+ overnight, Bpy, 10 μM Rh6GD, versus Fe^2+ supplement)	fluorescence of Fe^2+-treated cells versus unsupplemented ([1]; 100 μM ferrous ammonium sulfate overnight, then 10 μM Rh6GD 30 min)	fluorescence of Bpy-treated cells ([1]; Bpy, then 10 μM Rh6GD, versus sensor only)	Φ [2, 3]	ε of absorption peak at 555 nm [2, 3] [M⁻¹ cm⁻¹]	increase in fluorescence emission intensity ([2]; one equivalent Fe^3+, ACN/Tris-HCl buffer pH 7.3)
CCNc1cc2c(cc1C)C1(c3cc(C)c(NCC)cc3O2)c2ccccc2C(=O)N1/N=C/C=C/c1ccc(N(C)C)cc1 [Rh6GD, 2-(((1E,2E)-3-(4-(dimethylamino)phenyl)allylidene)amino)-3′,6′-bis(ethylamino)-2′,7′-dimethylspiro[isoindoline-1,9′-xanthen]-3-one]	weak fluorescence	marked decrease in fluorescent intensity	significant increase in fluorescent signals	significantly decrease in fluorescence signal			
CCN(CC)c1ccc2c(c1)Oc1cc(N(CC)CC)ccc1C21c2ccccc2C(=O)N1CC/N=C(\C)c1cccc(C(C)=O)n1 [Rh-PK, (E)-2-(2-((1-(6-acetylpyridin-2-yl)ethylidene)amino)ethyl)-3′,6′-bis(diethylamino)spiro[isoindoline-1,9′-xanthen]-3-one]					0.173	3200	~12 fold and > 12 fold
